Here are results for two compounds from patent US20140088066A1, “PLATINUM COMPOUNDS, COMPOSITIONS AND METHODS FOR THE TREATMENT OF CANCER” (Blend Therapeutics, priority 2012, published 2014).

Read-outs that look alike come from different tables or passages of the source.

The nature of data set [1]: physchem. How it is done:
Nanoparticle formulation of compound of Formula XVI. […] (cold) or at 20-25° C. (warm) and stored refrigerated or frozen with 10% sucrose.

A short description of data set [2]: physchem. The source holds these as a separate data set.
Data set [3] in a line: Aqueous solubility.

What is called solubility is the dissolved amount per volume that the medium holds. Turning to `CCCCCCCCCCCCCCCCCC(=O)[O][Pt]([NH2])([NH2])[n+]1cc2ccccc2c2ccccc21` [Compound 27, phenantriplatin (stearate) nitrate], the “saturated solubility in ethyl acetate (EA)” value in data set [1] is reported as “low”. Besides, the solubility in data set [1] (organic solvent or mixture) is 1500 µg/mL; in data set [2] it was below 100 µg/mL.
Usually aqueous solubility stands for how much of the substance goes into solution per volume. In the case of phenanthriplatin [phenantriplatin], in data set [3], the aqueous solubility is 5000 µg/mL.
